Assays:
[1] = system: mice with xerophthalmia (0.2% benzalkonium chloride); assay: Benzalkonium chloride xerophthalmia mouse model: sodium fluorescein staining and phenol red cotton thread tear test; type: in vivo, mouse (C57BL/6)
Protocol: The ocular xerophthalmia model was established in 6-8 weeks old mice (C57BL/6, Suzhou Xishan Biotechnology Co., Ltd.) with 0.2% benzalkonium chloride. 5 μL of 0.2% benzalkonium chloride was dripped into each eye of the mice, once in the morning and once in the evening every day, for two consecutive weeks. After successful modeling, the hospital-prepared CsA eye drops (400 µM CsA, referred to as hospital-prepared CsA eye drops or CsA eye drops, provided by the Eye, Ear, Nose and Throat Hospital Affiliated to Fudan University School of Medicine, Shanghai) and CsA-ASONFKBIZ-m (400 µM CsA) were used for eye drops treatment, 5 μL per eye, once in the morning and once in the evening. Sodium fluorescein staining and phenol red cotton thread tear secretion test were conducted on days 0, 7, and 14 of treatment to evaluate the therapeutic effect.
(§1) The ocular xerophthalmia model was established in 6-8 weeks old mice (C57BL/6, Suzhou Xishan Biotechnology Co., Ltd.) with 0.2% benzalkonium chloride. 5 μL of 0.2% benzalkonium chloride was dripped into each eye of the mice, once in the morning and once in the evening every day, for two consecutive weeks. After successful modeling, the hospital-prepared CsA eye drops (400 μM CsA, provided by the Eye, Ear, Nose and Throat Hospital Affiliated to Fudan University School of Medicine, Shanghai) and 2CsA-ASONFKBIZ-m (400 µM CsA) were used for eye drops treatment, 5 μL per eye, once in the morning and once in the evening. Sodium fluorescein staining and phenol red cotton thread tear secretion test were conducted on days 0, 7, and 14 of treatment to evaluate the therapeutic effect.
as §1, with “µM” for “μM”, “provided” for “provided by”, “3CsA-ASONFKBIZ-m nanomicelles (133 µM ASO concentration, 400” for “2CsA-ASONFKBIZ-m (400”
as §1, with “CsA3-ASONFKBIZ-m nanomicelles” for “2CsA-ASONFKBIZ-m”, “0” for “0, 7,”
The ocular xerophthalmia model was established in 6-8 weeks old mice (C57BL/6, Suzhou Xishan Biotechnology Co., Ltd.) using 0.2% benzalkonium chloride. 5 μL of 0.2% benzalkonium chloride was dripped into each eye of the mouse, once in the morning and once in the evening every day for two weeks. After successful modeling, the hospital-prepared CsA eye drops (400 µM CsA, provided by the Eye, Ear, Nose and Throat Hospital Affiliated to Fudan University School of Medicine, Shanghai) and CsA-siRNANFKBIZ-m (400 µM CsA), 2CsA-siRNANFKBIZ-m nanomicelles (400 µM CsA), 3CsA-siRNANFKBIZ-m nanomicelles (400 µM CsA) were used for eye drops treatment, 5 μL per eye, once in the morning and once in the evening. […]

[2] = system: psoriasis-like model mice (5% imiquimod cream); assay: Imiquimod psoriasis-like mouse model, smear administration in carbomer gel; type: in vivo; conditions: nanomicelles in carbomer gel applied to skin lesions, after 7 d of treatment
Protocol: (§2) The psoriasis model on the back and ears of 6-8 weeks old mice (C57BL/6, Suzhou Xishan Biotechnology Co., Ltd.) was established with 5% imiquimod cream. After removing the hair on the back of the mice, 60 mg of 5% imiquimod cream was applied to the back and ears of each mouse for 6 consecutive days. […] CsA3-ASONFKBIZ-m nanomicelles were mixed with carbomer gel and applied to the skin lesions for treatment. The carbomer gel without CsA3-ASONFKBIZ-m nanomicelles was used as a control group (control) for efficacy testing. On the 7 d of treatment, the thickness of the skin at the back lesions and the thickness of the ears were measured, and the erythema, scaling, skin thickening, and severity of the psoriasis lesions were scored. The results were shown in FIG. 54, FIGS. 55A-55B, and FIGS. 56A-56D.
as §2, with “mice” for “mice (C57BL/6, Suzhou Xishan Biotechnology Co., Ltd.)”, “10TA-ASONFKBIZ-m” for “CsA3-ASONFKBIZ-m”, “The carbomer gel without CsA3-ASONFKBIZ-m nanomicelles was used as a control group (control) for efficacy testing.” left out, “The results were shown in FIG. 54, FIGS. 55A-55B, and FIGS. 56A-56D.” left out

[3] = eye drops 5 μL per eye twice daily, 400 μM CsA (10RAP: 400 μM rapamycin), day 14
[4] = xerophthalmia mice, baseline of the treatment group

CsA3-ASONFKBIZ-m: CsA trimer on tripropargyl linker at 3′ end of ASO targeting mouse NFKBIZ (SEQ ID NO: 8) (AATACTGGTACATTGACGCC; 3'-NHS ASO with tripropargyl linker carrying three cyclosporin A, chemistry not given here, further chemistry not given here)
phenol red cotton thread infiltration length (tear secretion) after 14 d of treatment [1, 3]: about 3.5 mm | sodium fluorescein staining eye score after 14 d of treatment [1, 3]: about 6 points | phenol red cotton thread infiltration length (tear secretion), day 0 (before treatment) [1, 4]: 1.5 mm | sodium fluorescein staining eye score, day 0 (before treatment) [1, 4]: 10 points | erythema and scaling of the skin lesions versus control group [2]: significantly reduced | skin thickness of the lesions (and ears) versus control group [2]: reduced

From patent US20250367302A1, “SMALL MOLECULE DRUG-OLIGONUCLEOTIDE CONJUGATE AND USE THEREOF” (SHANGHAI JIAO TONG UNIVERSITY, priority 2022, published 2025)
